The values below come from patent US7038021B2, “Anti-dioxins monoclonal antibody suitable for assaying dioxins in environment and hybridoma producing the same” (priority 2004, dated 2006).

Broadly, the IC50 is the point on the concentration scale where inhibition reaches its midpoint.

The conditions of data set [1]: WHO-TEF, toxicity of 2,3,7,8-TCDD taken as 1; cited from earlier work.
The subject of data set [2] is monoclonal antibody Dx02-I-0. The data set can be described thus: Cross-reactivity of monoclonal antibody Dx02-I-0 by indirect competitive assay (ELISA, II-1 immobilized). The data set is classed as binding, mouse. The following applies: for IC50: indirect competitive assay, immobilized II-1, 20% DMSO and 0.01% Triton-X100, room temperature 10 to 30 minutes; for Cross-reactivity: obtained from IC50 values, 1,2,3,7,8-PeCDF = 100; for reactivity (cross-reactivity) of the antibody: assuming the reactivity with 1,2,3,7,8-PeCDF is 100%. The protocol: According to the method used for determination of the antibody titer, antigen II-1 or II-2 was immobilized onto wells of a microtiter plate and the wells were washed. A solution (300 μl) of Block Ace 4-fold diluted with deionized water was then added to the wells, and the wells were blocked by allowing it to stand at room temperature for 2 hours. The wells were washed three times with the washing solution (300 μl). The supernatant (25 μl) of the culture containing a primary antibody as well as a solution (25 μl) of various concentrations of a phenoxathiin derivative (I-1 or I-2), which is a compound for screening having a structure similar to that of dioxins and having a reduced toxicity, in 20% DMSO and 0.01% Triton-X100, or a solution (25 μl) of various concentrations of dioxins in 20% DMSO and 0.01% Triton-X100, or a solution (25 μl) containing neither the phenoxathiin derivatives nor the dioxins in 20% DMSO and 0.01% Triton-X100 which serves as a control were then added to the wells and mixed in the wells. The wells were allowed to stand at room temperature for 10 to 30 minutes to effect an antigen-antibody reaction.
The wells were washed three times with the washing solution (300 μl). Then, in order to detect the primary antibody which was bound to II-1 or II-2 immobilized onto the plate, a solution (50 μl) of a horseradish peroxidase-labeled anti-mouse IgG (recognizing γ-chain) prepared by 3000-fold diluting with a solution of Block Ace 10-fold diluted with deionized water was added to the wells as a solution of a secondary antibody, and reacted at room temperature for one our. After the wells were again washed three times with the washing solution (300 μl), a TMB solution was added to the wells, and a coloration reaction was effected at room temperature. After 5 to 15 minutes, the reaction was terminated by adding 1 M phosphoric acid (50 μl), and the absorbance at 450 nm was immediately measured using a microplate reader. The ratio (B/B0) of an absorbance value (B) in the well to which one of phenoxathiin derivatives or dioxins was added, to an absorbance value (control OD; B0) in the well to which only a solution of 20% DMSO and 0.01% Triton-X100 was added but neither the phenoxathiin derivatives nor the dioxins were added, was calculated to evaluate the reactivity of the primary antibody. A hybridoma in the well in which a continuously high production of an antibody having a high binding activity against the antigens was recognized was selected, expanded, and cloned by a limiting dilution method.
Using monoclonal antibody Dx02-I-0, the cross-reactivity with 17 kinds of dioxins each having a toxicity value and 12 kinds of coplanar PCBs was evaluated by an indirect competitive assay. II-1 (50 μl) was added to wells in a microtiter plate, and the wells were allowed to stand at room temperature for one hour and then washed. After the wells were blocked, various concentrations of one of dioxins (25 μl) dissolved in 20% DMSO and 0.01% Triton-X100 or a solution (25 μl) of 20% DMSO and 0.01% Triton-X100 not containing any dioxin which serves as a control as well as a solution (25 μl) of the antibody diluted with 0.01 to 0.1% BSA were added to the wells in the plate, and reacted at room temperature for 10 to 30 minutes.
Then, a coloration reaction was effected using a secondary antibody against the antibody bound to the solid phase, i.e. a peroxidase-labeled anti-mouse IgG antibody (recognizing γ-chain) as well as TMB. After the enzyme reaction was terminated, the absorbance at 450 nm was immediately measured. The B/B0 values were plotted for various dioxins, IC50 values were calculated from the resulting figures, and the cross-reactivity of the antibody was obtained from these values (Table 3).
For orientation: An ELISA detects its analyte on a solid surface through an enzyme-linked reagent.

The test system of data set [3] is antibody of non-patent reference 2. The following applies: assuming the reactivity with 1,2,3,7,8-PeCDF is 100%; cited from earlier work.

In brackets after ≈: the same amount, converted by molar mass. A value given as a limit tells only on which side of the number the result lay.

Turning to `Clc1cc2c(c(Cl)c1Cl)Oc1c(Cl)c(Cl)c(Cl)c(Cl)c1O2` [1,2,3,4,6,7,8-HpCDD], the TEF in data set [1] is listed as 0.01. In data set [2], this compound registered an IC50 greater than 0.1 µg/mL and a Cross-reactivity of less than 1.
`Clc1cc2c(oc3c(Cl)c(Cl)c(Cl)c(Cl)c32)c(Cl)c1Cl` [1,2,3,4,6,7,8-HpCDF]: the TEF in data set [1] is 0.01. In addition, in data set [2], the IC50 is greater than 0.1 µg/mL and the Cross-reactivity is less than 1.
Turning to `Clc1cc2oc3c(Cl)c(Cl)c(Cl)c(Cl)c3c2c(Cl)c1Cl` [1,2,3,4,7,8,9-HpCDF], the TEF in data set [1] is 0.01. In data set [2], the “reactivity (cross-reactivity) of the antibody” value (“reactivity (cross-reactivity)” for short) is given as 34%, the IC50 is 0.00267 µg/mL (≈ 0.00652 µM) and the Cross-reactivity worked out at 34.
On to `Clc1cc2c(cc1Cl)Oc1c(Cl)c(Cl)c(Cl)c(Cl)c1O2` [1,2,3,4,7,8-HxCDD], for which, in data set [1], the TEF was 0.1. In addition, in data set [2], the IC50 is greater than 0.1 µg/mL and the Cross-reactivity is recorded as less than 1.
Turning to `Clc1cc2oc3c(Cl)c(Cl)c(Cl)c(Cl)c3c2cc1Cl` [1,2,3,4,7,8-HxCDF], in data set [1], the TEF is recorded as 0.1. The compound further had a half-maximal inhibitory concentration (IC50) in data set [2] greater than 0.1 µg/mL. Besides, the Cross-reactivity in data set [2] was less than 1; in data set [3], 45.9%.
Consider `Clc1cc2c(c(Cl)c1Cl)Oc1cc(Cl)c(Cl)c(Cl)c1O2` [1,2,3,6,7,8-HxCDD], for which the TEF in data set [1] is given as 0.1. Besides, in data set [2], the “reactivity (cross-reactivity)” value is 93%, the IC50 stood at 0.000984 µg/mL (≈ 0.00252 µM) and the Cross-reactivity turned out to be 93.
With `Clc1cc2c(oc3cc(Cl)c(Cl)c(Cl)c32)c(Cl)c1Cl` [1,2,3,6,7,8-HxCDF], the TEF in data set [1] is reported as 0.1. In data set [2], this compound registered an IC50 greater than 0.1 µg/mL and a Cross-reactivity of less than 1. In addition, the Cross-reactivity in data set [3] is 36.6%.
With `Clc1cc2c(c(Cl)c1Cl)Oc1c(cc(Cl)c(Cl)c1Cl)O2` [1,2,3,7,8,9-HxCDD], the TEF in data set [1] is 0.1. Further, in data set [2], the “reactivity (cross-reactivity)” value came to 86%, the half-maximal inhibitory concentration (IC50) stood at 0.00106 µg/mL (≈ 0.00271 µM) and the Cross-reactivity came to 86. The Cross-reactivity in data set [3] was 39.8%.
On to `Clc1cc2oc3cc(Cl)c(Cl)c(Cl)c3c2c(Cl)c1Cl` [1,2,3,7,8,9-HxCDF], for which, in data set [1], the TEF is 0.1. Further, in data set [2], the half-inhibitory concentration (IC50) came out at 0.0355 µg/mL (≈ 0.0947 µM) and the Cross-reactivity is listed as 3. Also, the Cross-reactivity in data set [3] is 42.7%.
As to `Clc1cc2c(cc1Cl)Oc1c(cc(Cl)c(Cl)c1Cl)O2` [1,2,3,7,8-PeCDD], the TEF in data set [1] is on record as 1. In data set [2], this compound showed a 50% inhibitory concentration (IC50) of 0.0296 µg/mL (≈ 0.083 µM) and a Cross-reactivity of 3.
For `Clc1cc2oc3cc(Cl)c(Cl)c(Cl)c3c2cc1Cl` [1,2,3,7,8-PeCDF], in data set [1], the TEF is listed as 0.05. In data set [2], this compound returned an IC50 of 0.000915 µg/mL (≈ 0.00269 µM) and a Cross-reactivity of 100.
Turning to `Clc1cc(-c2cc(Cl)c(Cl)c(Cl)c2Cl)cc(Cl)c1Cl` [2,3,3′,4,4′,5,5′-HpCB], in data set [1], the TEF is 0.0001. In data set [2], the IC50 was greater than 0.1 µg/mL and the Cross-reactivity is recorded as less than 1.
In the case of `Clc1ccc(-c2cc(Cl)c(Cl)c(Cl)c2Cl)cc1Cl` [2,3,3′,4,4′,5-HxCB], the TEF in data set [1] is recorded as 0.0005. In data set [2], this compound gave a concentration for half-maximal inhibition (IC50) greater than 0.1 µg/mL and a Cross-reactivity of less than 1.
`Clc1cc(-c2ccc(Cl)c(Cl)c2Cl)cc(Cl)c1Cl` [2,3,3′,4,4′,5′-HxCB]: the TEF in data set [1] was 0.0005. In data set [2], this compound displayed an IC50 greater than 0.1 µg/mL and a Cross-reactivity of less than 1.
For `Clc1ccc(-c2ccc(Cl)c(Cl)c2Cl)cc1Cl` [2,3,3′,4,4′-PeCB], in data set [1], the TEF is on record as 0.0001. In addition, in data set [2], the IC50 was greater than 0.1 µg/mL and the Cross-reactivity is given as less than 1.
With `Clc1ccc(-c2cc(Cl)c(Cl)c(Cl)c2Cl)cc1` [2,3,4,4′,5-PeCB], the TEF in data set [1] is listed as 0.0005. In data set [2], this compound displayed an IC50 greater than 0.1 µg/mL and a Cross-reactivity of less than 1.
For the compound `Clc1cc2c(oc3c(Cl)c(Cl)c(Cl)cc32)c(Cl)c1Cl` [2,3,4,6,7,8-HxCDF], the TEF in data set [1] was 0.1. For the same compound, in data set [2], the “reactivity (cross-reactivity)” value came to 93%, the IC50 came to 0.000989 µg/mL (≈ 0.00264 µM) and the Cross-reactivity is 93. Also, in data set [3], the Cross-reactivity is 43.8%.
For the compound `Clc1cc2c(cc1Cl)Oc1cc(Cl)c(Cl)cc1O2` [2,3,7,8-TeCDD, 2,3,7,8-tetrachlorodibenzo-p-dioxin], the TEF in data set [1] is on record as 1. Further, in data set [2], the “reactivity (cross-reactivity)” value worked out at 13%, the IC50 amounted to 0.0072 µg/mL (≈ 0.0224 µM) and the Cross-reactivity is recorded as 13.
Consider `Clc1cc2oc3cc(Cl)c(Cl)cc3c2cc1Cl` [2,3,7,8-TeCDF], for which the TEF in data set [1] is listed as 0.1. For the same compound, in data set [2], the IC50 is 0.0123 µg/mL (≈ 0.0402 µM) and the Cross-reactivity stood at 7.
On to `Clc1cc(Cl)c(-c2cc(Cl)c(Cl)c(Cl)c2)cc1Cl` [2,3′,4,4′,5,5′-HxCB], for which the TEF in data set [1] is reported as 0.00001. Besides, in data set [2], the IC50 was greater than 0.1 µg/mL and the Cross-reactivity is less than 1.
On to `Clc1ccc(-c2cc(Cl)c(Cl)cc2Cl)cc1Cl` [2,3′,4,4′,5-PeCB], for which the TEF in data set [1] was 0.0001. In data set [2], this compound returned an IC50 greater than 0.1 µg/mL and a Cross-reactivity of less than 1.
As to `Clc1ccc(-c2cc(Cl)c(Cl)c(Cl)c2)c(Cl)c1` [2′,3,4,4′,5-PeCB], the TEF in data set [1] is 0.0001. Besides, in data set [2], the IC50 is greater than 0.1 µg/mL and the Cross-reactivity is less than 1.
Regarding `Clc1cc(-c2cc(Cl)c(Cl)c(Cl)c2)cc(Cl)c1Cl` [3,3′,4,4′,5,5′-HxCB], the TEF in data set [1] is recorded as 0.01. Also, in data set [2], the concentration for half-maximal inhibition (IC50) is 0.0629 µg/mL (≈ 0.174 µM) and the Cross-reactivity came to 1.
Regarding `Clc1ccc(-c2cc(Cl)c(Cl)c(Cl)c2)cc1Cl` [3,3′,4,4′,5-PeCB], the TEF in data set [1] was 0.1. In data set [2], this compound returned an IC50 of 0.0537 µg/mL (≈ 0.165 µM) and a Cross-reactivity of 2.
As for `Clc1ccc(-c2ccc(Cl)c(Cl)c2)cc1Cl` [3,3′,4,4′-TeCB], the TEF in data set [1] is recorded as 0.0001. Also, in data set [2], the IC50 was greater than 0.1 µg/mL and the Cross-reactivity is reported as less than 1.
Take `Clc1ccc(-c2cc(Cl)c(Cl)c(Cl)c2)cc1` [3,4,4′,5-TeCB]: the TEF in data set [1] is listed as 0.0001. In data set [2], the IC50 is greater than 0.1 µg/mL and the Cross-reactivity is less than 1.
On to `Clc1c(Cl)c(Cl)c2c(c1Cl)Oc1c(Cl)c(Cl)c(Cl)c(Cl)c1O2` [OCDD], for which the TEF in data set [1] is listed as 0.0001. In data set [2], this compound returned an IC50 greater than 0.1 µg/mL and a Cross-reactivity of less than 1.
As for `Clc1c(Cl)c(Cl)c2c(oc3c(Cl)c(Cl)c(Cl)c(Cl)c32)c1Cl` [OCDF], the TEF in data set [1] is listed as 0.0001. In data set [2], this compound gave an IC50 greater than 0.1 µg/mL and a Cross-reactivity of less than 1.
